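A five-concentration, 48-hour dose response in 96-well plates underlies each endpoint, interpolated linearly between surrounding concentrations. Here, GI50 denotes the concentration required for 50% inhibition of growth. TGI is the concentration that stops growth completely.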
Test system: KM12 colon
Experiment: inhibition of tumour cell growth, NCI panel, 48 h

Question: How did the TGI turn out when COc1ccc2c(c1)C1(C=N2)CCN(C(C)=O)CC1 was run?
Answer: > 100 µM

Question: O=C1NC2(CCCCC2)C2CCCCC(O)C12 (centres undefined) was tested. Which TGI did it give?
Answer: > 100 µM

Question: How did the TGI turn out when CCOC(=O)C1=C(C)CC2C(=O)OC(=O)C2C1(C)C (centres undefined) was run?
Answer: > 100 µM

Question: What does the source list for CC1=C(C(=O)Nc2ccc(F)c(Cl)c2)C(c2ccc(Cl)cc2)NC(=O)N1 (centres undefined)?
Answer: GI50: 24.2 µM; TGI: 52.1 µM

Question: Which results are given for Oc1ccc(Cl)cc1-c1cc(-c2ccccc2Cl)[nH]n1?
Answer: GI50: 2.41 µM; TGI: > 100 µM

Question: With CCOC(=O)C(Sc1ccccc1)c1c(OC)cc(=O)oc1/C=[N+](/[O-])c1ccc(N(C)C)cc1 (centres undefined) as the compound, how does the TGI read?
Answer: 47.4 µM

Question: With CNC(=O)c1cc(Oc2ccc3nc(NC(=O)Nc4ccc(Cl)c(C(F)(F)F)c4)sc3c2)ccn1 as the compound, how does the GI50 read?
Answer: 3.41 µM

Question: And the TGI?
Answer: > 100 µM

Question: Which TGI does the source give for COc1ccc2nc3cc(Cl)ccc3c(Sc3ccccc3[N+](=O)[O-])c2c1 here?
Answer: > 100 µM

Question: With O=C(O)C(Cc1ccccc1)N1C(=O)N/C(=C\c2ccc(F)cc2)C1=O (centres undefined) as the compound, how does the TGI read?
Answer: > 100 µM

Question: Which TGI does the source give for C/C(CCn1[nH]c(=O)ccc1=O)=N\O here?
Answer: > 100 µM

Question: Which TGI does the source give for COc1ccccc1NC(=O)CC(=O)n1nc(C)c(N=Nc2ccccc2C(=O)O)c1C here?
Answer: > 100 µM

Question: CC(=O)N1[C@H](C(=O)O)CS[C@H]1c1ccncc1 was tested. Which TGI did it give?
Answer: > 100 µM

Question: Which GI50 does the source give for COc1ccc(C2=CSc3cc(Cl)c(C)cc3S(=O)(=O)N2C(C)=O)cc1 here?
Answer: 23.1 µM

Question: And the TGI?
Answer: 92.2 µM

Question: How did the TGI turn out when CC(=O)OC1COC(n2c(=S)n(-c3ccc(C)cc3)c(=O)c3ccccc32)C(OC(C)=O)C1OC(C)=O (centres undefined) was run?
Answer: > 100 µM

Question: For COc1cccc(NC(=O)CC(=O)n2nc(C)c(N=Nc3ccccc3)c2C)c1, which TGI is on record?
Answer: > 100 µM

Question: Which results are given for CC(=O)[O][Hg][c]1c(N)c(C)cc(C)c1F?
Answer: GI50: 10.6 µM; TGI: 22.7 µM

Question: O=C(O)CCSC(=O)Nc1cccc(F)c1 was tested. Which TGI did it give?
Answer: > 100 µM

Question: How did the TGI turn out when c1cc2c(cc1NC1=NCCO1)CCC2 was run?
Answer: > 10 µM

Test system: MALME-3M melanoma
Experiment: inhibition of tumour cell growth, NCI panel, 48 h

Question: What does the source list for NC(CSC(c1ccccc1)(c1ccccc1)c1ccc2c(c1)OCO2)C(=O)O (centres undefined)?
Answer: GI50: 0.979 µM; TGI: 74.4 µM

Question: For O=C(NCCNc1nccc(-c2c(-c3cccc(O)c3)nc3sccn23)n1)c1ccccc1O, which GI50 is on record?
Answer: 0.152 µM

Question: And the TGI?
Answer: 18.7 µM

Question: Which GI50 does the source give for CCCCCCCC(=O)SCC/C=C/[C@@H]1CC(=O)NCc2cccc(n2)C2=N[C@@](C)(CS2)C(=O)N[C@@H](C(C)C)C(=O)N1 here?
Answer: 0.142 µM

Question: What about the TGI of the same compound?
Answer: 2.37 µM

Question: With C[C@@H](CS(C)(=O)=O)Nc1ncc2cc(Oc3ccc(F)cc3F)c(=O)n(C)c2n1 as the compound, how does the GI50 read?
Answer: > 25 µM

Question: What about the TGI of the same compound?
Answer: > 25 µM

Question: With CC(C)=CCCc1c(C)ccc2c1C(=O)C(=O)C(C(C)C)=C2 as the compound, how does the TGI read?
Answer: 6.78 µM

Question: What does the source list for COc1cc2c(c(OC)c1O)C(=O)C(OC)C(c1ccc(O)c(O)c1)O2 (centres undefined)?
Answer: GI50: 48.3 µM; TGI: > 100 µM

Question: Which GI50 does the source give for Cn1ccnc1C(=O)/C=C/c1ccc(CC(=O)Nc2ccc(Br)cc2)cc1 here?
Answer: 4.04 µM

Question: What about the TGI of the same compound?
Answer: 10.8 µM

Question: For COC(=O)[C@@H](C)C[C@H](Cc1ccc(F)cc1)NC(=O)c1csc([C@@H](C[C@H](C(C)C)N(C)C(=O)[C@@H](NC(=O)[C@H]2CCCCN2C)C(C)C)OC(C)=O)n1, which GI50 is on record?
Answer: 4.51 µM

Question: What about the TGI of the same compound?
Answer: > 16.7 µM

Question: N#CC(C#N)=c1ccc(=C2NCC3CCCN23)cc1 (centres undefined) was tested. Which TGI did it give?
Answer: > 100 µM

Question: With CCOC(=O)COc1cccc2c1C(=O)CCO2 as the compound, how does the TGI read?
Answer: > 100 µM

Question: How did the TGI turn out when Nc1ccc(C(=O)N/C(=C\c2ccc3c(c2)OCO3)c2nc3[nH]c(=S)[nH]c(=O)c3[nH]2)cc1 was run?
Answer: > 100 µM

Question: With O[C@H]1[C@H]2c3cc4c(cc3CN3CCC(=C[C@@H]1O)[C@H]23)OCO4 as the compound, how does the TGI read?
Answer: 10.7 µM

Question: How did the GI50 turn out when CNC(=O)c1ccccc1Nc1nc(Nc2ccc(N3CCOCC3)cc2OC)ncc1Cl was run?
Answer: 0.405 µM

Question: What about the TGI of the same compound?
Answer: 16.9 µM

Question: How did the TGI turn out when O=C(N/C(=C\c1cc(Cl)ccc1Cl)c1nc2[nH]c(=S)[nH]c(=O)c2[nH]1)c1ccccc1 was run?
Answer: > 100 µM

Question: CN(CC(=O)O)S(=O)(=O)c1ccc2ccccc2c1 was tested. Which TGI did it give?
Answer: > 100 µM

Question: O=[S@@]1Nc2ccc(Br)cc2S1 was tested. Which TGI did it give?
Answer: > 100 µM

Question: Which TGI does the source give for COc1ccc2c(c1)C1(C=N2)CCN(C(C)=O)CC1 here?
Answer: > 100 µM

Question: How did the TGI turn out when O=C1NC2(CCCCC2)C2CCCCC(O)C12 (centres undefined) was run?
Answer: > 100 µM

Question: For CCOC(=O)C1=C(C)CC2C(=O)OC(=O)C2C1(C)C (centres undefined), which TGI is on record?
Answer: > 100 µM

Question: For CC1=C(C(=O)Nc2ccc(F)c(Cl)c2)C(c2ccc(Cl)cc2)NC(=O)N1 (centres undefined), which GI50 is on record?
Answer: 16.8 µM

Question: What about the TGI of the same compound?
Answer: 38.5 µM

Question: Which GI50 does the source give for Oc1ccc(Cl)cc1-c1cc(-c2ccccc2Cl)[nH]n1 here?
Answer: 9.76 µM

Question: And the TGI?
Answer: > 100 µM
